According to patent US20090048269A1 (AstraZeneca AB, priority 2007, published 2009):

Legend:
human ALK5 [1] = biological target: T1, human ALK5 (Homo sapiens, UniProt P36897); experiment: ALK5 Enzyme Assay 2 (fluorescence polarisation probe displacement); format: binding; parameters: 6His tagged human ALK5 (residues162-503) was grown and purified from insect cells; 6His; made in house; host or cells: insect cells
T1 sequence (P36897 162-503): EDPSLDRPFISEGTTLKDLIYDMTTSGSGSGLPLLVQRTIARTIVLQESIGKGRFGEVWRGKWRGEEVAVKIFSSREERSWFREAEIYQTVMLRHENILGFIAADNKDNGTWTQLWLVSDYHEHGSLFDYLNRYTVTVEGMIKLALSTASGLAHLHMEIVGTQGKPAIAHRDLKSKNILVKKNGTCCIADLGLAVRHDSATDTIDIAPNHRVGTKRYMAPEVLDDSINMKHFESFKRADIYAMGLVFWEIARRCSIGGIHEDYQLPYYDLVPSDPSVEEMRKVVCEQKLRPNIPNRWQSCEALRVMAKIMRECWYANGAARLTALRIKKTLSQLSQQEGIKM
Method in brief: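 Recombinant ALK5 (3 μg/mL) incubated with test compound in 50 mM HEPES pH7.4, 10 mM MgCl2, 1 mM DTT, 0.01% CHAPS. Displacement of a fluorescent quinazoline-based ALK5 probe (50 nM final) in presence of 1 μM ATP read by fluorescence polarisation.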

human ALK5 [2] = biological target: T1, human ALK5; experiment: ALK5 Enzyme Assay 1; format: biochemical; parameters: 6His tagged ALK5 protein (amino acids 162-503) expressed in insect cells; 6His; made in house; host or cells: insect cells
Protocol: This assay measures the ability of a compound to bind to and inhibit the activity of ALK5 protein in vitro. […] Assay measurements were performed in assay buffer comprising 60 mM HEPES pH 7.4, 3 mM MgCl2, 3 mM MnCl2, 3 μM Na orthovanadate, 1.2 mM DTT and 0.05% PEG2000. […] Reactions were performed in the presence of 200 μg/mL casein (Sigma-Aldrich C4765-10ML), 200 ng/mL ALK5, 0.5 μM ATP (Sigma-Aldrich A7699), 1 μCi/mL γ-33P ATP. Following addition of casein, ATP and compound, reactions were initiated by adding ALK5 enzyme and reactions run for 90 minutes. After incubation reactions were terminated by addition of 20 μL per well of 50% orthophosphoric acid. 20 minutes after addition of 70% v/v TCA, precipitated protein was transferred to GF/C 96 well plates using a Tomtec harvester with 1.5% orthophosphoric acid. […] All reactions were performed under linear kinetics.

[3] = read-out: EAA2: activity (μM) using Enzyme Assay 2
[4] = read-out: EAA: activity (μM) using Enzyme Assay 1

Structure (SMILES) | IC50 (human ALK5 [1]; [3]) [µM] | IC50 (human ALK5 [2]; [4]) [µM] | IC50 (human ALK5 [1]) [µM] | IC50 (human ALK5 [2]; EAA: activity (μM) using Enzyme Assay 1) [µM]
COc1cc(Nc2cc(Oc3cccnc3-c3ccc(NC(C)=O)cc3)ccn2)cc(OC)c1OC [Example 51, N-[4-(3-{2-[(3,4,5-Trimethoxyphenyl)amino]pyridin-4-yl}-oxypyridin-2-yl)phenyl]acetamide] | 0.0274 | 0.23 |  | 
COc1cc(Nc2cc(Oc3ccc(C)nc3-c3cscc3C)ccn2)cc(OC)c1OC [Example 46, 4-[6-Methyl-2-(4-methylthiophen-3-yl)pyridin-3-yl]oxy-N-(3,4,5-trimethoxyphenyl)pyridin-2-amine] | 0.0175 | 0.0153 |  | 
Cc1cc(Oc2ccnc(Nc3ccc4[nH]ccc4c3)c2)c(-c2ccccn2)nc1C [Example 35, N-[4-(5,6-Dimethyl-2-pyridin-2-yl-pyridin-3-yl)-oxypyridin-2-yl]-1H-indol-5-amine] | 0.463 | 0.205 |  | 
COc1cc(Nc2cc(Oc3ccc(C)nc3)ccn2)cc(OC)c1OC [Example 8, 4-(6-Methylpyridin-3-yl)oxy-N-(3,4,5-trimethoxyphenyl)-pyridin-2-amine] | 0.294 | 0.174 |  | 
Cc1cc(Oc2ccnc(Nc3cccnc3)c2)c(-c2ccccn2)nc1C [Example 15, 4-(5,6-Dimethyl-2-pyridin-2-yl-pyridin-3-yl)oxy-N-pyridin-3-yl-pyridin-2-amine] | 0.0147 | 0.0129 |  | 
Cc1cc(Oc2ccnc(Nc3ccncc3)c2)c(-c2ccccn2)nc1C [Example 36, 4-(5,6-Dimethyl-2-pyridin-2-yl-pyridin-3-yl)oxy-N-pyridin-4-yl-pyridin-2-amine] | 0.0515 | 0.0632 |  | 
COc1cc(Nc2cc(Oc3ccc(C)nc3-c3cccc(F)c3)ccn2)cc(OC)c1OC [Example 56, 4-[2-(3-Fluoro-phenyl)-6-methyl-pyridin-3-yl]oxy-N-(3,4,5-trimethoxy-phenyl)pyridin-2-amine] | 0.0795 | 0.00379 |  | 
COc1cc(Nc2cc(Oc3ccc(C)nc3-c3cccc(Cl)c3)ccn2)cc(OC)c1OC [Example 55, 4-[2-(3-Chlorophenyl)-6-methyl-pyridin-3-yl]oxy-N-(3,4,5-trimethoxyphenyl)-pyridin-2-amine] | 0.0346 | 0.00929 |  | 
Cc1cc(Oc2ccnc(Nc3cccc(F)c3)c2)c(-c2ccccn2)nc1C [Example 29, N-(3-Fluorophenyl)-4-(5,6-dimethyl-2-pyridin-2-yl-pyridin-3-yl)-oxy-pyridin-2-amine] | 0.0184 | 0.0166 |  | 
Cc1cc(Oc2ccnc(Nc3ccc(C(=O)N(C)C)cc3)c2)c(-c2ccccn2)nc1C [Example 27, 4-{[4-(5,6-Dimethyl-2-pyridin-2-yl-pyridin-3-yl)oxypyridin-2-yl]-amino}-N,N-dimethyl-benzamide] | 0.0124 | 0.00706 |  | 
CC(=O)Nc1cc(Nc2cc(Oc3cc(C)c(C)nc3-c3ccccn3)ccn2)ccc1C [Example 16, N-(5-{[4-(5,6-Dimethyl-2-pyridin-2-yl-pyridin-3-yl)oxypyridin-2-yl]amino}-2-methyl-phenyl)acetamide] | 0.00602 | 0.0128 |  | 
Cc1cc(Oc2ccnc(Nc3cccc(C#N)c3)c2)c(-c2ccccn2)nc1C [Example 41, 3-{[4-(5,6-Dimethyl-2-pyridin-2-yl-pyridin-3-yl)oxypyridin-2-yl]-amino}-benzonitrile] | 0.0123 | 0.0141 |  | 
Cc1cc(Oc2ccnc(Nc3ccc(S(C)(=O)=O)cc3)c2)c(-c2ccccn2)nc1C [Example 13, 4-(5,6-Dimethyl-2-pyridin-2-yl-pyridin-3-yl)oxy-N-(4-methylsulfonyl-phenyl)-pyridin-2-amine] | 0.0103 | 0.00853 |  | 
COc1cc(Nc2cc(Oc3cc(C)c(C)nc3-c3cccc(C)n3)ccn2)cc(OC)c1OC [Example 2, 4-[5,6-Dimethyl-2-(6-methylpyridin-2-yl)pyridin-3-yl]oxy-N-(3,4,5-trimethoxy-phenyl)pyridin-2-amine] | 0.0723 | 0.0337 |  | 
Cc1cc(Oc2ccnc(Nc3ccc(Cl)cc3)c2)c(-c2ccccn2)nc1C [Example 30, N-(4-Chlorophenyl)-4-(5,6-dimethyl-2-pyridin-2-yl-pyridin-3-yl)oxy-pyridin-2-amine] | 0.894 | 1.67 |  | 
COc1cc(Nc2cc(Oc3ccc(C)nc3-c3cnccn3)ccn2)cc(OC)c1OC [Example 48, 4-(6-Methyl-2-pyrazin-2-yl-pyridin-3-yl)oxy-N-(3,4,5-trimethoxy-phenyl)pyridin-2-amine] | 0.0486 | 0.0751 |  | 
COc1cc(Nc2cc(Oc3ccc(C)nc3-c3ccccc3)ccn2)cc(OC)c1OC [Example 45, 4-(6-Methyl-2-phenyl-pyridin-3-yl)oxy-N-(3,4,5-trimethoxy-phenyl)pyridin-2-amine] | 0.00799 | 0.00537 |  | 
COc1cc(Nc2cc(Oc3cccnc3Cl)ccn2)cc(OC)c1OC [Example 53, 4-(2-Chloropyridin-3-yl)oxy-N-(3,4,5-trimethoxyphenyl)pyridin-2-amine] | 0.249 | 0.481 |  | 
Cc1cc(Oc2ccnc(Nc3ccc(F)cc3F)c2)c(-c2ccccn2)nc1C [Example 37, N-(2,4-Difluorophenyl)-4-(5,6-dimethyl-2-pyridin-2-yl-pyridin-3-yl)oxy-pyridin-2-amine] | 0.0216 | 0.036 |  | 
Cc1cc(Oc2ccnc(Nc3cc(F)ccc3F)c2)c(-c2ccccn2)nc1C [Example 31, N-(2,5-Difluorophenyl)-4-(5,6-dimethyl-2-pyridin-2-yl-pyridin-3-yl)-oxy-pyridin-2-amine] | 0.0312 | 0.0274 |  | 
CCc1ccc(Oc2ccnc(Nc3ccc(S(N)(=O)=O)cc3)c2)c(-c2ccccn2)n1 [Example 44, 4-{[4-(6-Ethyl-2-pyridin-2-yl-pyridin-3-yl)oxypyridin-2-yl]-amino}benzene-sulfonamide] | 0.0165 | 0.0161 |  | 
Cc1cc(Oc2ccnc(Nc3cccc(CO)c3)c2)c(-c2ccccn2)nc1C [Example 38, (3-{[4-(5,6-Dimethyl-2-pyridin-2-yl-pyridin-3-yl)-oxypyridin-2-yl]amino}phenyl)methanol] | 0.00378 | 0.00977 |  | 
Cc1cc(Oc2ccnc(Nc3ccc(CO)cc3)c2)c(-c2ccccn2)nc1C [Example 33, (4-{[4-(5,6-Dimethyl-2-pyridin-2-yl-pyridin-3-yl)-oxypyridin-2-yl]amino}phenyl)methanol] | 0.0167 | 0.0172 |  | 
COc1cc(Nc2cc(Oc3cccnc3-c3ccccc3)ccn2)cc(OC)c1OC [Example 49, 4-(2-Phenylpyridin-3-yl)oxy-N-(3,4,5-trimethoxyphenyl)pyridin-2-amine] | 0.00804 | 0.00782 |  | 
Cc1cc(Oc2ccnc(Nc3ccc(F)cc3)c2)c(-c2ccccn2)nc1C [Example 10, 4-(5,6-Dimethyl-2-pyridin-2-yl-pyridin-3-yl)oxy-N-(4-fluorophenyl)pyridin-2-amine] | 0.0883 | 0.017 |  | 
COc1cc(Nc2cc(Oc3cccnc3-c3ccc(F)cc3)ccn2)cc(OC)c1OC [Example 52, 4-[2-(4-Fluorophenyl)pyridin-3-yl]oxy-N-(3,4,5-trimethoxy-phenyl)pyridin-2-amine] | 0.0329 | 0.0156 |  | 
COc1cc(Nc2cc(Oc3cccnc3C)ccn2)cc(OC)c1OC [Example 9, 4-(2-Methylpyridin-3-yl)oxy-N-(3,4,5-trimethoxyphenyl)-pyridin-2-amine] | 0.187 | 0.114 |  | 
COc1ccccc1Nc1cc(Oc2cc(C)c(C)nc2-c2ccccn2)ccn1 [Example 19, 4-(5,6-Dimethyl-2-pyridin-2-yl-pyridin-3-y1)oxy-N-(2-methoxy-phenyl)-pyridin-2-amine] |  |  | 0.00216 | 0.0128
Cc1cc(Oc2ccnc(Nc3ccc(C#N)cc3)c2)c(-c2ccccn2)nc1C [Example 34, 4-{[4-(5,6-Dimethyl-2-pyridin-2-yl-pyridin-3-yl)-oxypyridin-2-yl]amino}benzonitrile] | 0.0255 | 0.0215 |  | 
Cc1cc(Oc2ccnc(Nc3cc(N4CCOCC4)cc(N4CCOCC4)c3)c2)c(-c2ccccn2)nc1C [Example 21, 4-(5,6-Dimethyl-2-pyridin-2-yl-pyridin-3-yl)oxy-N-(3,5-dimorpholin-4-ylphenyl)pyridin-2-amine] | 0.125 | 0.0772 |  | 
